Measurements published in the NIST ThermoML archive (doi:10.1016/j.jct.2018.04.018).
“And” between values parts separate entries of the source, which are not always exact repeats. Identical values can stand only once.

Settings: 101.33 kPa, Liquid; for mass density: Vibrating tube method; for speed of sound: Single path-length method

CCCCCCCC[n+]1ccn(C)c1.F[P-](F)(F)(F)(F)F [1-octyl-3-methylimidazolium hexafluorophosphate]
Settings	viscosity
269.96 K, Cone and plate viscometry	8278 mPa·s
270.27 K, Cone and plate viscometry	7970.4 mPa·s
270.37 K, Cone and plate viscometry	7819.7 mPa·s
270.91 K, Cone and plate viscometry	7509 mPa·s
271.66 K, Cone and plate viscometry	6771 mPa·s
272.33 K, Cone and plate viscometry	6420 mPa·s
272.44 K, Cone and plate viscometry	6269.6 mPa·s
273.24 K, Cone and plate viscometry	5792.5 mPa·s
274.02 K, Cone and plate viscometry	5350.3 mPa·s
274.63 K, Cone and plate viscometry	4992.4 mPa·s
274.8 K, Cone and plate viscometry	4951.8 mPa·s
274.81 K, Cone and plate viscometry	4903 mPa·s
274.88 K, Cone and plate viscometry	4879 mPa·s
275.31 K, Cone and plate viscometry	4651.9 mPa·s
275.44 K, Cone and plate viscometry	4635.1 mPa·s
275.56 K, Cone and plate viscometry	4593.6 mPa·s
276.14 K, Cone and plate viscometry	4334 mPa·s
276.34 K, Cone and plate viscometry	4268.2 mPa·s
276.47 K, Cone and plate viscometry	4216.3 mPa·s
276.9 K, Cone and plate viscometry	4053 mPa·s
277.09 K, Cone and plate viscometry	3957.1 mPa·s
277.68 K, Cone and plate viscometry	3777 mPa·s
277.76 K, Cone and plate viscometry	3737 mPa·s
277.85 K, Cone and plate viscometry	3693.3 mPa·s
278.15 K, Concentric cylinders viscometry	3543 mPa·s
278.46 K, Cone and plate viscometry	3522.8 mPa·s
278.6 K, Cone and plate viscometry	3439.8 mPa·s
279.19 K, Cone and plate viscometry	3241 mPa·s
279.24 K, Cone and plate viscometry	3279.4 mPa·s
279.34 K, Cone and plate viscometry	3221.2 mPa·s
280.01 K, Cone and plate viscometry	3050.1 mPa·s
280.09 K, Cone and plate viscometry	3002.8 mPa·s
280.77 K, Cone and plate viscometry	2845.3 mPa·s
280.78 K, Cone and plate viscometry	2866 mPa·s
280.84 K, Cone and plate viscometry	2803.8 mPa·s
281.53 K, Cone and plate viscometry	2656.6 mPa·s
281.59 K, Cone and plate viscometry	2620.4 mPa·s
282.29 K, Cone and plate viscometry	2486.9 mPa·s
282.33 K, Cone and plate viscometry	2458 mPa·s
282.53 K, Cone and plate viscometry	2412.6 mPa·s
283.04 K, Cone and plate viscometry	2331.3 mPa·s
283.08 K, Cone and plate viscometry	2299.1 mPa·s
283.15 K, Concentric cylinders viscometry	2263.1 mPa·s
283.79 K, Cone and plate viscometry	2174 mPa·s
283.83 K, Cone and plate viscometry	2154.4 mPa·s
284.54 K, Cone and plate viscometry	2037.4 mPa·s
284.55 K, Cone and plate viscometry	2001 mPa·s
284.58 K, Cone and plate viscometry	2017.2 mPa·s
285.28 K, Cone and plate viscometry	1916 mPa·s
285.32 K, Cone and plate viscometry	1893.2 mPa·s
286.03 K, Cone and plate viscometry	1799.7 mPa·s
286.06 K, Cone and plate viscometry	1779.6 mPa·s
286.78 K, Cone and plate viscometry	1697.1 mPa·s
286.8 K, Cone and plate viscometry	1672.4 mPa·s
287.52 K, Cone and plate viscometry	1594.4 mPa·s
287.55 K, Cone and plate viscometry	1572.8 mPa·s
288.15 K, Concentric cylinders viscometry	1475.1 mPa·s
288.27 K, Cone and plate viscometry	1496.8 mPa·s
288.29 K, Cone and plate viscometry	1479.3 mPa·s
289.02 K, Cone and plate viscometry	1407.5 mPa·s
289.03 K, Cone and plate viscometry	1391.9 mPa·s
289.76 K, Cone and plate viscometry	1327.8 mPa·s
289.78 K, Cone and plate viscometry	1313.9 mPa·s
290.5 K, Cone and plate viscometry	1253.5 mPa·s
290.52 K, Cone and plate viscometry	1241 mPa·s
291.24 K, Cone and plate viscometry	1183.2 mPa·s
291.27 K, Cone and plate viscometry	1168.4 mPa·s
291.98 K, Cone and plate viscometry	1115.8 mPa·s
292 K, Cone and plate viscometry	1101.8 mPa·s
292.73 K, Cone and plate viscometry	1053.3 mPa·s
292.75 K, Cone and plate viscometry	1040.1 mPa·s
293.15 K, Concentric cylinders viscometry	1001.1 mPa·s
293.48 K, Cone and plate viscometry	994.4 mPa·s
293.49 K, Cone and plate viscometry	984.3 mPa·s
294.22 K, Cone and plate viscometry	932.9 mPa·s
294.25 K, Cone and plate viscometry	929.4 mPa·s
294.96 K, Cone and plate viscometry	882.6 mPa·s
295.02 K, Cone and plate viscometry	879.2 mPa·s
295.71 K, Cone and plate viscometry	844.7 mPa·s
295.79 K, Cone and plate viscometry	829.3 mPa·s
296.47 K, Cone and plate viscometry	798 mPa·s
296.57 K, Cone and plate viscometry	784.2 mPa·s
297.2 K, Cone and plate viscometry	757 mPa·s
297.33 K, Cone and plate viscometry	741.5 mPa·s
297.94 K, Cone and plate viscometry	718 mPa·s
298.08 K, Cone and plate viscometry	705.1 mPa·s
298.15 K, Concentric cylinders viscometry	691.2 mPa·s
298.69 K, Cone and plate viscometry	682.3 mPa·s
298.82 K, Cone and plate viscometry	668.2 mPa·s
299.43 K, Cone and plate viscometry	647.5 mPa·s
299.55 K, Cone and plate viscometry	632.9 mPa·s
300.16 K, Cone and plate viscometry	614.6 mPa·s
300.28 K, Cone and plate viscometry	601.2 mPa·s
300.91 K, Cone and plate viscometry	584.1 mPa·s
301 K, Cone and plate viscometry	572.3 mPa·s
301.65 K, Cone and plate viscometry	555.5 mPa·s
301.73 K, Cone and plate viscometry	545 mPa·s
302.39 K, Cone and plate viscometry	528.9 mPa·s
302.46 K, Cone and plate viscometry	519.8 mPa·s
303.14 K, Cone and plate viscometry	502.9 mPa·s
303.15 K, Concentric cylinders viscometry	490 mPa·s
303.19 K, Cone and plate viscometry	494.3 mPa·s
303.88 K, Cone and plate viscometry	478.8 mPa·s
303.92 K, Cone and plate viscometry	470.6 mPa·s
304.62 K, Cone and plate viscometry	450.9 mPa·s
304.65 K, Cone and plate viscometry	449.1 mPa·s
305.37 K, Cone and plate viscometry	434.2 mPa·s
305.39 K, Cone and plate viscometry	429.1 mPa·s
306.11 K, Cone and plate viscometry	414.9 mPa·s
306.13 K, Cone and plate viscometry	409.9 mPa·s
306.85 K, Cone and plate viscometry	396 mPa·s
306.86 K, Cone and plate viscometry	390.9 mPa·s
307.59 K, Cone and plate viscometry	378 mPa·s
307.6 K, Cone and plate viscometry	372.5 mPa·s
308.34 K, Cone and plate viscometry	361 mPa·s
308.35 K, Cone and plate viscometry	356 mPa·s
309.09 K, Cone and plate viscometry	339.9 mPa·s and 344.9 mPa·s
309.82 K, Cone and plate viscometry	329.8 mPa·s
309.84 K, Cone and plate viscometry	325.7 mPa·s
310.57 K, Cone and plate viscometry	311.5 mPa·s and 315.9 mPa·s
311.31 K, Cone and plate viscometry	301.8 mPa·s
311.32 K, Cone and plate viscometry	297.7 mPa·s
312.05 K, Cone and plate viscometry	288.8 mPa·s
312.06 K, Cone and plate viscometry	284.9 mPa·s
312.8 K, Cone and plate viscometry	273.3 mPa·s and 275.7 mPa·s
313.15 K, Concentric cylinders viscometry	266.1 mPa·s
313.54 K, Cone and plate viscometry	264.8 mPa·s
313.55 K, Cone and plate viscometry	262 mPa·s
314.28 K, Cone and plate viscometry	254 mPa·s
314.29 K, Cone and plate viscometry	251.2 mPa·s
315.03 K, Cone and plate viscometry	240.6 mPa·s and 243.2 mPa·s
315.77 K, Cone and plate viscometry	230.6 mPa·s and 233 mPa·s
316.51 K, Cone and plate viscometry	221.6 mPa·s and 223.5 mPa·s
317.25 K, Cone and plate viscometry	213.6 mPa·s
317.26 K, Cone and plate viscometry	214.9 mPa·s
317.99 K, Cone and plate viscometry	206.5 mPa·s
318 K, Cone and plate viscometry	204 mPa·s
318.74 K, Cone and plate viscometry	196.1 mPa·s and 198.4 mPa·s
319.48 K, Cone and plate viscometry	188.3 mPa·s and 190.7 mPa·s
320.22 K, Cone and plate viscometry	181 mPa·s and 183.1 mPa·s
320.96 K, Cone and plate viscometry	174.4 mPa·s
320.97 K, Cone and plate viscometry	176 mPa·s
321.71 K, Cone and plate viscometry	168.1 mPa·s
321.72 K, Cone and plate viscometry	169.5 mPa·s
322.44 K, Cone and plate viscometry	163.6 mPa·s
322.46 K, Cone and plate viscometry	161.6 mPa·s
323.19 K, Cone and plate viscometry	155.4 mPa·s and 157.1 mPa·s
323.93 K, Cone and plate viscometry	149.8 mPa·s
323.94 K, Cone and plate viscometry	151.1 mPa·s
324.68 K, Cone and plate viscometry	144.3 mPa·s
324.69 K, Cone and plate viscometry	145.6 mPa·s
325.43 K, Cone and plate viscometry	139.3 mPa·s
325.44 K, Cone and plate viscometry	140.5 mPa·s
326.17 K, Cone and plate viscometry	135.3 mPa·s
326.18 K, Cone and plate viscometry	135.7 mPa·s
326.91 K, Cone and plate viscometry	129.5 mPa·s
326.92 K, Cone and plate viscometry	130.8 mPa·s
327.65 K, Cone and plate viscometry	124.9 mPa·s
327.67 K, Cone and plate viscometry	126 mPa·s
328.39 K, Cone and plate viscometry	120.8 mPa·s
328.46 K, Cone and plate viscometry	121.6 mPa·s
329.14 K, Cone and plate viscometry	116.8 mPa·s and 117.6 mPa·s
329.88 K, Cone and plate viscometry	112.8 mPa·s and 113.7 mPa·s
330.62 K, Cone and plate viscometry	108.9 mPa·s
330.63 K, Cone and plate viscometry	109.9 mPa·s
331.36 K, Cone and plate viscometry	105.1 mPa·s
331.37 K, Cone and plate viscometry	106 mPa·s
332.1 K, Cone and plate viscometry	102.6 mPa·s

Settings	mass density	speed of sound [m/s]
278.15 K	1252.41 kg/m3 and 1252.42 kg/m3	–
278.16 K	1252.41 kg/m3	–
283.15 K	1248.4 kg/m3 [middle of 4 runs]	1460.8
288.15 K	1244.12 kg/m3	–
293.15 K	1240.16 kg/m3 and 1240.34 kg/m3 and 1240.35 kg/m3	1425.5
293.17 K	1240.24 kg/m3	–
298.15 K	1236.18 kg/m3	–
303.15 K	1232.68 kg/m3 and 1232.44 kg/m3 and 1232.4 kg/m3	1394.9
303.16 K	1232.32 kg/m3	–
313.15 K	1224.86 kg/m3 and 1224.73 kg/m3 and 1224.76 kg/m3	–
313.16 K	1224.63 kg/m3	1367
323.15 K	1217.09 kg/m3 and 1217.15 kg/m3	1342
323.16 K	1217.34 kg/m3	–
